Measurements reported in patent EP0724879A2, “2-Phenyl-3-azoylbenzothiopenes for inhibiting effects of IL-6” (ELI LILLY AND COMPANY, priority 1995, dated 1996).

Legend:
[1] = tested on: IL-6 stimulated cell proliferation (T1165.17 plasmacytoma; B9 hybridoma); experiment: Assay 3: cytokine dependent cell proliferation, IL-6; assay type: cell-based; settings: Mus musculus; 50% inhibition of IL-6 dependent cell proliferation; 0.01 to 1 µM tested
Method: (§1) The following mouse cell lines were used for cytokine bioassays: CTLL.6 cytolytic T cell - IL-2, IL-4; 11.6 helper T cell - IL-4; T1165.17 plasmacytoma - IL-1, IL-6; B9 hybridoma - IL-6, LIF (leukemia inhibitory factor). Approximately 5,000 cells are seeded per duplicate well in 96-well flat-bottom microtiter plates in standard tissue culture medium (i.e. Iscove's Modified Dulbecco's Medium or Dulbecco's Modified Eagle's Medium supplemented with 25 mM Hepes, 2 mM L-glutamine, 50 µM 2-mercaptoethanol, 50 units/ml penicillin, 50 µg/ml streptomycin sulfate, and fetal bovine serum) containing vehicle (DMSO), raloxifene (0.01 to 1 µM) or 17-b-estradiol (0.01 to 1 µM) in the absence or presence of the indicated recombinant cytokine. Microtiter plates are incubated at 37°C in a humidified 10% CO2 incubator for 24 to 72 hours. At the end of that time, either 1 µCi 3H-thymidine or 100 µg of MTT (3-[4,5-dimethylthiazol-2-yl]-2,5-diphenyltetrazolium bromide) is added per well followed by an additional 4 to 6 hours of incubation. Microcultures pulsed using tritiated thymidine are harvested onto filter pads and counted by liquid scintillation. […] Optical density readings are taken at 570 nm with a reference wavelength of 690 nm to quantitate cell proliferation. […]

IL-6 [2] = experiment: Assay 1: serum IL-6 in OVX rats (bioassay); assay type: in vivo, SD rats
Method: (§2) Six month old, virgin SD rats are OVX or OVX/hypophysectomized (HYPOX) and treated with vehicle (20% cyclodextrin, PO), raloxifene (0.1 to 10 mg/kg/day, PO) or ethynyl estradiol EE2; 0.001 to 0.1 mg/kg/day, PO). A sham, vehicle treated control is also included. Serum and/or long bones are collected after a 35 day or shorter treatment period. Serum cytokine determinations are performed by bioassay.
(§3) No consistent changes in other serum cytokines is detected.

[3] = tested on: LIF stimulated cell proliferation (B9 hybridoma); experiment: Assay 3: cytokine dependent cell proliferation, LIF; assay type: cell-based; settings: Mus musculus; 50% inhibition of LIF dependent cell proliferation; 0.01 to 1 µM tested
Method: as §1

[4] = tested on: IL-2 stimulated proliferation (CTLL.6 cytolytic T cell); experiment: Assay 3: cytokine dependent cell proliferation, IL-2; assay type: cell-based; settings: Mus musculus, 50% inhibition of IL-2 dependent cell proliferation, 0.01 to 1 µM tested
Method: as §1

OVX-induced osteopenia = experiment: Assay 1: bone mass / BMD protection in OVX rats; assay type: in vivo, SD rats; settings: for BMD % (protection) / OVX-induced osteopenia: OVX rats, 35 day treatment; for OVX-induced osteopenia / bone density: result in words; for bone density: OVX/hypophysectomized (HYPOX) rats
Method: as §2, §3

[5] = tested on: IL-4 stimulated proliferation (CTLL.6 cytolytic T cell; 11.6 helper T cell); experiment: Assay 3: cytokine dependent cell proliferation, IL-4; assay type: cell-based; settings: Mus musculus, 50% inhibition of IL-4 dependent cell proliferation, 0.01 to 1 µM tested
Method: as §1

IL-6 [6] = experiment: Assay 2: IL-1-induced serum IL-6 in mice (ELISA); assay type: in vivo; settings: male BALB/c mice, 1 mg/kg PO for 3 days, then IL-1b 3 ug SC, 2 hours
Method: Ten week old male BALB/c mice are treated with vehicle (20% cyclodextrin, PO) or raloxifene (1 mg/kg, PO) for 3 days. On day 4, mice are treated with vehicle (saline, IP), LA-15.1 anti-IL-1 receptor monoclonal antibody (mAb) (250 ug, IP) or human recombinant IL-1b (3 ug, SC). After 2 hours, serum was collected by orbital sinus puncture and IL-6 levels quantitated by ELISA.
Injection of IL-1 into cyclodextrin treated mice induces a significant increase in serum IL-6 (193 ± 29 ng/ml) versus saline injected cyclodextrin treated mice (<1 ng/ml) (Table 2). […] The anti-IL-1 receptor mAb LA-15.1 completely attenuates the IL-1-induced rise in serum IL-6 levels.

[7] = OVX rats, 100 µg/kg, 35 day treatment
[8] = OVX rats, 35 day treatment, PO, result in words
[9] = animals treated for as few as four days post-OVX, result in words

Structure (SMILES): C[C@]12CC[C@@H]3c4ccc(O)cc4CC[C@H]3[C@@H]1CC[C@@H]2O [17-β-E2, 17-b-estradiol]
- IC50 [1]: > 1 µM
- Serum IL-6 (IL-6 [2]; [7]): 0.07 ± 0.10 ng/mL
- IC50 [3]: > 1 µM
- IC50 [4]: > 1 µM
- BMD % (protection) (OVX-induced osteopenia; 100 µg/kg): 106.4 ± 11.8%
- IC50 [5]: > 1 µM

Structure (SMILES): C#C[C@]1(O)CC[C@H]2[C@@H]3CCc4cc(O)ccc4[C@H]3CC[C@@]21C [Ethy, ethynyl estradiol]
- Serum IL-6 (IL-6 [2]; OVX rats, 1 µg/kg, 35 day treatment): 3.42 ± 2.23 ng/mL
- Serum IL-6 (IL-6 [2]; OVX rats, 10 µg/kg, 35 day treatment): 1.84 ± 0.60 ng/mL
- Serum IL-6 (IL-6 [2]; [7]): 0.20 ± 0.10 ng/mL
- rise in serum IL-6 levels (IL-6 [2]; [8]): significantly attenuate
- Serum IL-6 (IL-6 [2]; [9]): significant reduction
- BMD % (protection) (OVX-induced osteopenia; 1 µg/kg): 5.28 ± 11.83%
- BMD % (protection) (OVX-induced osteopenia; 10 µg/kg): 57.25 ± 16.07%
- BMD % (protection) (OVX-induced osteopenia; 100 µg/kg): 76.00 ± 18.3%
- OVX-induced osteopenia (OVX-induced osteopenia; PO): significantly attenuate
- bone density (OVX-induced osteopenia): did not respond

Structure (SMILES): O=C(c1ccc(OCCN2CCCCC2)cc1)c1c(-c2ccc(O)cc2)sc2cc(O)ccc12 [Raloxifene]
- IC50 [1]: 0.719 µM
- Serum IL-6 (IL-6 [2]; OVX rats, 0.1 mg.kg, PO, 35 day treatment): 4.32 ± 1.65 ng/mL
- Serum IL-6 (IL-6 [2]; OVX rats, 1 mg/kg, PO, 35 day treatment): 1.55 ± 0.48 ng/mL
- Serum IL-6 (IL-6 [2]; OVX rats, 10 mg/kg, PO, 35 day treatment): 1.23 ± 0.45 ng/mL
- rise in serum IL-6 levels (IL-6 [2]; [8]): significantly attenuate
- Serum IL-6 (IL-6 [2]; [9]): significant reduction
- IC50 [3]: 0.603 µM
- IC50 [4]: > 1 µM
- BMD % (protection) (OVX-induced osteopenia; 0.1 mg.kg, PO): 63.88 ± 19.8%
- BMD % (protection) (OVX-induced osteopenia; 1 mg/kg, PO): 82.50 ± 17.17%
- BMD % (protection) (OVX-induced osteopenia; 10 mg/kg, PO): 82.09 ± 7.02%
- OVX-induced osteopenia (OVX-induced osteopenia; PO): significantly attenuate
- bone density (OVX-induced osteopenia): did not respond
- IL-6 (IL-6 [6]; 1 mg/kg): 90 ± 21 ng/mL
- IL-6 (IL-6 [6]; listed as 139478, 1 mg/kg): 90 ± 2.1 ng/mL
- IC50 [5]: > 1 µM
